Results as given in patent publication US20220031710A1, “USE OF ERK5 INHIBITORS FOR TREATING GLIOMAS IN PEDIATRIC SUBJECTS” (UNIVERSITY OF PITTSBURGH - OF THE COMMONWEALTH SYSTEM OF …, priority 2019, published 2022).
Where a SMILES comes first, the peptide text is derived from it. The star is where a group is joined. Cbz = O=C(OCc1ccccc1)*

Tests used:
MYC = assay: Western blot of phospho MYC S62 and total MYC in DIPG cells; format: cell-based, human; details: DIPG-IV cells with ERK5 knockdown (Dox); MG132 10 uM
Procedure: (§1) Cell pellets were lysed in PLC lysis buffer containing protease and phosphatase inhibitors (Roche Inc.). Protein lysates were quantified using the bicinchoninic acid (BCA) assay (Pierce Chemical Co., Rockford, Ill.). 30 μg of total protein lysate was loaded in 10% SDS-PAGE gels and electrophoresed. Proteins were transferred to PVDF membranes using a semi-dry transfer apparatus (Bio-Rad). Membranes were blocked for one hour and probed for various proteins overnight in 5% non-fat milk or 5% BSA in Tris Buffered Saline Solution, 0.5% Tween-20 (TBST) or Phosphate Buffered Saline Solution with 0.5% Tween-20 (PBST). Membranes were washed for 5 mins in TBST (3×) and incubated with horseradish peroxidase-conjugated antibodies specific for the primary antibody (BioRad Laboratories, Inc., CA, USA). Binding was detected using Chemiluminescence Reagent Plus (PerkinElmer Inc., MA, USA).

RASAL1 = assay: Western blot of RASAL1 after decitabine treatment; format: cell-based, human; details: DIPG-007 and NSC H3K27M cells; 5 days; 1 μM
Procedure: as §1

EZH2 = target: T1, EZH2 (Homo sapiens, UniProt Q15910); assay: Western blot of H3K27Me3, RAS activation and p16 in NSCs treated with EZH2 inhibitor; format: cell-based; details: GSK343 (504)
T1 construct: endogenous in cells; host or cells: H9 hESC-derived human neural stem cells
T1 sequence (Q15910 whole entry): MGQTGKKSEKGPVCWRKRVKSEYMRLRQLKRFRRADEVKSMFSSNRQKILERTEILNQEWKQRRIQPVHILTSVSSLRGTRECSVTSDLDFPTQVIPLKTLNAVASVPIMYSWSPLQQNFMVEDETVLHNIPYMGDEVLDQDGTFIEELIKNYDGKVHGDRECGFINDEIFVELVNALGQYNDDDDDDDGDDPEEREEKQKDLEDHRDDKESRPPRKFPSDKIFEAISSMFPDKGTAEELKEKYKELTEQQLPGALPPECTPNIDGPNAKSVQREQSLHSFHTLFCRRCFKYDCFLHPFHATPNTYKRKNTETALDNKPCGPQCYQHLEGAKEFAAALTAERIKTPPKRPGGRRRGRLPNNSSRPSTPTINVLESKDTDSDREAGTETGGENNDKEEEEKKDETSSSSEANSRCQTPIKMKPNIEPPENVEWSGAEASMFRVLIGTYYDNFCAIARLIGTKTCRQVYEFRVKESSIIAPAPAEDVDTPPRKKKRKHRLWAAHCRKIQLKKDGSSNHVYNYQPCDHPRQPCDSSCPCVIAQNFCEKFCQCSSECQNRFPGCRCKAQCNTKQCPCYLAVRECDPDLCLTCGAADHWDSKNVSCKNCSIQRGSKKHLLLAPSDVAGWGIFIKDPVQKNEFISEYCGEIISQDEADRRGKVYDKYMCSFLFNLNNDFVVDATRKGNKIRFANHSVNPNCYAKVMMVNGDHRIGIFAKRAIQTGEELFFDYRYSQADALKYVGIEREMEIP
T1 sequence (O75530 whole entry partner): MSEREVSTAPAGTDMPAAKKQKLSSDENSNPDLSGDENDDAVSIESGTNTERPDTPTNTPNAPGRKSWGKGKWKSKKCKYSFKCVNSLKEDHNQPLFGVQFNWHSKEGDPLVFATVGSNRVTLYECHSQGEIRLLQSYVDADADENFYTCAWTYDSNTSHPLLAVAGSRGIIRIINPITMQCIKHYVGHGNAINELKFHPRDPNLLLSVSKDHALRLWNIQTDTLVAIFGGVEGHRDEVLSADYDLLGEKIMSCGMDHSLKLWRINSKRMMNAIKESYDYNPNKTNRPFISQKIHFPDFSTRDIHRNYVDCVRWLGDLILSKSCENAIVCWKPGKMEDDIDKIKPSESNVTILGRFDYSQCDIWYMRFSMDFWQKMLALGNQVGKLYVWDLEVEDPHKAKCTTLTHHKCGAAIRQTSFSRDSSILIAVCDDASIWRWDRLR
T1 sequence (Q15022 whole entry partner): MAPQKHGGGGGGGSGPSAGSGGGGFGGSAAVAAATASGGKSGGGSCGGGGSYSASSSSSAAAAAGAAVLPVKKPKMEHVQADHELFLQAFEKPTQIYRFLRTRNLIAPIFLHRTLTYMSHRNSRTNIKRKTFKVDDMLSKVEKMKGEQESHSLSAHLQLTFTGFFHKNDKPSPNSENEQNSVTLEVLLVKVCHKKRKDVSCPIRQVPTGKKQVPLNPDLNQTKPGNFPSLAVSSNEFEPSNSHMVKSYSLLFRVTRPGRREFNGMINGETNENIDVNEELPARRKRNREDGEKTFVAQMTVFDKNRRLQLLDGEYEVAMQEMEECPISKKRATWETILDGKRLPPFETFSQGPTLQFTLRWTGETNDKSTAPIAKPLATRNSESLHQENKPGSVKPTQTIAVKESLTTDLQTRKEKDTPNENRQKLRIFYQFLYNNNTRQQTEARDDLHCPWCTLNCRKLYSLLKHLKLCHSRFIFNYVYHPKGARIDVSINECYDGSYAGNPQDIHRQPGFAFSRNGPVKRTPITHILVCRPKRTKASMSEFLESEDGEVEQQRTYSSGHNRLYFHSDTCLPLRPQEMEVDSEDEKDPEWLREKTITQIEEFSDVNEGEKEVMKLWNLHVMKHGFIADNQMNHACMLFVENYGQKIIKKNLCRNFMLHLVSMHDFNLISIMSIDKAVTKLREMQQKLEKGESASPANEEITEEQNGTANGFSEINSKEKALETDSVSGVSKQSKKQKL
T1 sequence (Q09028 whole entry partner): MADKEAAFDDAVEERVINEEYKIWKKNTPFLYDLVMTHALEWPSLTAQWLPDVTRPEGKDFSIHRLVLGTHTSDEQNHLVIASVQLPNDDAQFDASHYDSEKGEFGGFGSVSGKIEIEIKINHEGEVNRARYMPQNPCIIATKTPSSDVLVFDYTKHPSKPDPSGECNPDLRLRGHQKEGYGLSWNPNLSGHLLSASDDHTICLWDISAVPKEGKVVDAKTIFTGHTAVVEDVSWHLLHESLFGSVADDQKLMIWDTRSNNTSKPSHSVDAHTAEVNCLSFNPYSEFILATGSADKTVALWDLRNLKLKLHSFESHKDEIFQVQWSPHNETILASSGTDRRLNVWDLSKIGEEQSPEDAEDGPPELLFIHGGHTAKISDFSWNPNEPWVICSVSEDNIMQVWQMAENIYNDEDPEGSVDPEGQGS
Procedure: RAS activity was measured using the RAS activation assay (Cell Signaling Technology, Cat #8814). Briefly, active Ras Detection GST-RAF1-RBD fusion protein was used to bind the activated form of GTP-bound RAS, which was then immunoprecipitated from 500 μg of total cell lysate with glutathione resin. RAS activation levels were then determined by western blot using a RAS Mouse mAb. Activated RAS immune-precipitate was normalized to total RAS from whole cell lysate.
as §1

NSCs = assay: Direct Trypan-Blue automated cell count of NSCs treated with EZH2 inhibitor; format: cell-based, human; details: GSK343 (504), over 5 days
Procedure: Direct cell counts were performed using the Countess II FL Automated Cell Counter (ThermoFisher Scientific). Alamar blue viability (ThermoFisher Scientific) and the 5-bromo-2′-deoxyuridine (BrdU) incorporated cell proliferation assay (Cell Signaling Technology Cat #6813) were performed using the manufacturer's standard protocol. EC50 curve analysis was performed using raw fluorescent Alamar blue values that were inputted into PRISM 7.0. Drug concentrations were log 10 transformed and values normalized to percent viability with respect to vehicle treated cells. EC50 values were interpolated from a log inhibitor vs. normalized response with variable slope using a least square fit model.

With `CC(C)C[C@@H](C=O)NC(=O)[C@H](CC(C)C)NC(=O)[C@H](CC(C)C)NC(=O)OCc1ccccc1` [MG132] (Cbz-Leu-Leu-Leu-aldehyde) as the molecule, how does the “protein expression of total MYC” value (MYC) read?
Its value is “restored”.

`Nc1ncn([C@H]2C[C@H](O)[C@@H](CO)O2)c(=O)n1` [decitabine, 5-aza-2′-deoxycytidine] was tested. Which “expression of RASAL1 protein” value (RASAL1) did it give?
Its value is “restored”.

How did the “CDKN2A locus (p16 protein immunoblot)” value (EZH2) turn out when `CCCc1cc(C)[nH]c(=O)c1CNC(=O)c1cc(-c2ccnc(N3CCN(C)CC3)c2)cc2c1cnn2C(C)C` [GSK343] was run?
The value was “activation of the CDKN2A locus”.

What about the H3K27Me3 (EZH2) of the same molecule?
Its H3K27Me3 is “loss of H3K27Me3”.

What about the “activated RAS” value (EZH2) of the same molecule?
The value was “reduced activated RAS”.

What about the cell proliferation (NSCs) of the same molecule?
The cell proliferation was “reduced cell proliferation”.
